# Assay results taken from PubChem BioAssay AID1963970 (Molecular Pharmacology Branch, DTP, NCI, 2024).
# Tested on: 931267-113-T-J1-PDC multicell spheroid viability
# Assay: Anticancer human tumor 931267-113-T-J1-PDC patient-derived colon adenocarcinoma cell line growth inhibition [PI3K]
# Details: for IC50: curve of first compound; for viability, T/C: stronger effect = lower value
# In short: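 Stroma-containing spheroids: tumor line, pooled-donor HUVEC, hMSC. Treatments: targeted agents with PI3K inhibitors. Dosing: clinically relevant, half-log spacing, 10 microM ceiling without known Cmax. Read-out: cell viability.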
# [1] = second compound 0.00316 µM, first compound 0.000316 µM
# [2] = second compound 0.00316 µM, first compound 0.001 µM
# [3] = second compound 0.00316 µM, first compound 0.00316 µM
# [4] = second compound 0.00316 µM, first compound 0.01 µM
# [5] = second compound 0.00316 µM, first compound 0.0316 µM
# [6] = second compound 0.00316 µM, first compound 0.1 µM
# [7] = second compound 0.01 µM, first compound 0.000316 µM
# [8] = second compound 0.01 µM, first compound 0.001 µM
# [9] = second compound 0.01 µM, first compound 0.00316 µM
# [10] = second compound 0.01 µM, first compound 0.01 µM
# [11] = second compound 0.01 µM, first compound 0.0316 µM
# [12] = second compound 0.01 µM, first compound 0.1 µM
# [13] = second compound 0.0316 µM, first compound 0.000316 µM
# [14] = second compound 0.0316 µM, first compound 0.001 µM
# [15] = second compound 0.0316 µM, first compound 0.00316 µM
# [16] = second compound 0.0316 µM, first compound 0.01 µM
# [17] = second compound 0.0316 µM, first compound 0.0316 µM
# [18] = second compound 0.0316 µM, first compound 0.1 µM
# [19] = second compound 0.1 µM, first compound 0.000316 µM
# [20] = second compound 0.1 µM, first compound 0.001 µM
# [21] = second compound 0.1 µM, first compound 0.00316 µM
# [22] = second compound 0.1 µM, first compound 0.01 µM
# [23] = second compound 0.1 µM, first compound 0.0316 µM
# [24] = second compound 0.1 µM, first compound 0.1 µM
# [25] = second compound 0.316 µM, first compound 0.000316 µM
# [26] = second compound 0.316 µM, first compound 0.001 µM
# [27] = second compound 0.316 µM, first compound 0.00316 µM
# [28] = second compound 0.316 µM, first compound 0.01 µM
# [29] = second compound 0.316 µM, first compound 0.0316 µM
# [30] = second compound 0.316 µM, first compound 0.1 µM
# [31] = second compound 1 µM, first compound 0.000316 µM
# [32] = second compound 1 µM, first compound 0.001 µM
# [33] = second compound 1 µM, first compound 0.00316 µM
# [34] = second compound 1 µM, first compound 0.01 µM
# [35] = second compound 1 µM, first compound 0.0316 µM
# [36] = second compound 1 µM, first compound 0.1 µM
# 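Also: viability read 7 days after compound addition.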
smiles,measurement,setting,value
CC(=O)c1c(C)c2cnc(Nc3ccc(N4CCNCC4)cn3)nc2n(C2CCCC2)c1=O + COc1c(OCCCN2CCOCC2)ccc2c3n(c(=NC(=O)c4cnc(N)nc4)nc12)CCN3,IC50,second compound 0.00316 µM,> 100 nM
same,IC50,second compound 0.01 µM,> 100 nM
same,IC50,second compound 0.0316 µM,> 100 nM
same,IC50,second compound 0.1 µM,> 100 nM
same,IC50,second compound 0.316 µM,0.489 nM
same,IC50,second compound 1 µM,< 0.316 nM
same,"viability, T/C",[1],108%
same,"viability, T/C",[2],102%
same,"viability, T/C",[3],94.8%
same,"viability, T/C",[4],99.6%
same,"viability, T/C",[5],97.3%
same,"viability, T/C",[6],94.8%
same,"viability, T/C",[7],105%
same,"viability, T/C",[8],97.7%
same,"viability, T/C",[9],92.7%
same,"viability, T/C",[10],94%
same,"viability, T/C",[11],98.6%
same,"viability, T/C",[12],91.5%
same,"viability, T/C",[13],77.5%
same,"viability, T/C",[14],84.4%
same,"viability, T/C",[15],76.2%
same,"viability, T/C",[16],80.9%
same,"viability, T/C",[17],82.3%
same,"viability, T/C",[18],79.4%
same,"viability, T/C",[19],70.8%
same,"viability, T/C",[20],65%
same,"viability, T/C",[21],66.2%
same,"viability, T/C",[22],64.1%
same,"viability, T/C",[23],67.7%
same,"viability, T/C",[24],51.2%
same,"viability, T/C",[25],51.9%
same,"viability, T/C",[26],47.2%
same,"viability, T/C",[27],47.6%
same,"viability, T/C",[28],43.8%
same,"viability, T/C",[29],44.5%
same,"viability, T/C",[30],37.5%
same,"viability, T/C",[31],35.1%
same,"viability, T/C",[32],35.9%
same,"viability, T/C",[33],32.2%
same,"viability, T/C",[34],31.9%
same,"viability, T/C",[35],34.3%
same,"viability, T/C",[36],26.1%
CC(C)n1nc(-c2ccc3oc(N)nc3c2)c2c(N)ncnc21 + COc1c(OCCCN2CCOCC2)ccc2c3n(c(=NC(=O)c4cnc(N)nc4)nc12)CCN3,IC50,second compound 0.00316 µM,93.1 nM
same,IC50,second compound 0.01 µM,91.6 nM
same,IC50,second compound 0.0316 µM,68.5 nM
same,IC50,second compound 0.1 µM,31.2 nM
same,IC50,second compound 0.316 µM,1.49 nM
same,IC50,second compound 1 µM,< 0.316 nM
same,"viability, T/C",[1],90.4%
same,"viability, T/C",[2],97.9%
same,"viability, T/C",[3],94.1%
same,"viability, T/C",[4],96%
same,"viability, T/C",[5],88.6%
same,"viability, T/C",[6],47.3%
same,"viability, T/C",[7],96.2%
same,"viability, T/C",[8],90.2%
same,"viability, T/C",[9],88.1%
same,"viability, T/C",[10],82.3%
same,"viability, T/C",[11],75.4%
same,"viability, T/C",[12],47.2%
same,"viability, T/C",[13],90.5%
same,"viability, T/C",[14],82.1%
same,"viability, T/C",[15],80.5%
same,"viability, T/C",[16],72.4%
same,"viability, T/C",[17],60.3%
same,"viability, T/C",[18],44.6%
same,"viability, T/C",[19],76.5%
same,"viability, T/C",[20],66%
same,"viability, T/C",[21],64.4%
same,"viability, T/C",[22],60.9%
same,"viability, T/C",[23],51.8%
same,"viability, T/C",[24],34.5%
same,"viability, T/C",[25],55.5%
same,"viability, T/C",[26],50.8%
same,"viability, T/C",[27],46.3%
same,"viability, T/C",[28],43.1%
same,"viability, T/C",[29],36%
same,"viability, T/C",[30],29%
same,"viability, T/C",[31],37.1%
same,"viability, T/C",[32],35.8%
same,"viability, T/C",[33],35.3%
same,"viability, T/C",[34],32.1%
same,"viability, T/C",[35],27.5%
same,"viability, T/C",[36],22.2%
CCCS(=O)(=O)Nc1ccc(F)c(C(=O)c2c[nH]c3ncc(-c4ccc(Cl)cc4)cc23)c1F + COc1c(OCCCN2CCOCC2)ccc2c3n(c(=NC(=O)c4cnc(N)nc4)nc12)CCN3,IC50,second compound 0.00316 µM,6300 nM
same,IC50,second compound 0.01 µM,5980 nM
same,IC50,second compound 0.0316 µM,5830 nM
same,IC50,second compound 0.1 µM,4990 nM
same,IC50,second compound 0.316 µM,3660 nM
same,IC50,second compound 1 µM,< 31.6 nM
same,"viability, T/C",[5],111%
same,"viability, T/C",[6],116%
same,"viability, T/C","second compound 0.00316 µM, first compound 0.316 µM",104%
same,"viability, T/C","second compound 0.00316 µM, first compound 1 µM",125%
same,"viability, T/C","second compound 0.00316 µM, first compound 3.16 µM",127%
same,"viability, T/C","second compound 0.00316 µM, first compound 10 µM",5.18%
same,"viability, T/C",[11],102%
same,"viability, T/C",[12],101%
same,"viability, T/C","second compound 0.01 µM, first compound 0.316 µM",108%
same,"viability, T/C","second compound 0.01 µM, first compound 1 µM",109%
same,"viability, T/C","second compound 0.01 µM, first compound 3.16 µM",110%
same,"viability, T/C","second compound 0.01 µM, first compound 10 µM",5.04%
same,"viability, T/C",[17],87.8%
same,"viability, T/C",[18],92.2%
same,"viability, T/C","second compound 0.0316 µM, first compound 0.316 µM",93.3%
same,"viability, T/C","second compound 0.0316 µM, first compound 1 µM",111%
same,"viability, T/C","second compound 0.0316 µM, first compound 3.16 µM",101%
same,"viability, T/C","second compound 0.0316 µM, first compound 10 µM",8.61%
same,"viability, T/C",[23],75.4%
same,"viability, T/C",[24],68.6%
same,"viability, T/C","second compound 0.1 µM, first compound 0.316 µM",77.2%
same,"viability, T/C","second compound 0.1 µM, first compound 1 µM",85.2%
same,"viability, T/C","second compound 0.1 µM, first compound 3.16 µM",77.6%
same,"viability, T/C","second compound 0.1 µM, first compound 10 µM",9.09%
same,"viability, T/C",[29],55.8%
same,"viability, T/C",[30],51.3%
same,"viability, T/C","second compound 0.316 µM, first compound 0.316 µM",59.2%
same,"viability, T/C","second compound 0.316 µM, first compound 1 µM",56.7%
same,"viability, T/C","second compound 0.316 µM, first compound 3.16 µM",57.2%
same,"viability, T/C","second compound 0.316 µM, first compound 10 µM",8.55%
same,"viability, T/C",[35],36.3%
same,"viability, T/C",[36],39.5%
same,"viability, T/C","second compound 1 µM, first compound 0.316 µM",36.3%
same,"viability, T/C","second compound 1 µM, first compound 1 µM",41.4%
same,"viability, T/C","second compound 1 µM, first compound 3.16 µM",39.7%
same,"viability, T/C","second compound 1 µM, first compound 10 µM",10.2%
